In patent US20090263317A1, “METHOD OF SCREENING THE ACTIVITY OF THE SMOOTHENED RECEPTOR TO IDENTIFY THERAPUTIC MODULATION AGENTS OR DIAGNOSE DISEASE” (priority 2005, published 2009):

Molecular target: T1, Smo (Homo sapiens, UniProt Q99835)
T1 construct: expressed in transfected cells; host or cells: HEK293
Assay: Membrane recruitment (translocation) of βarr2-GFP, confocal imaging
Assay type: cell-based
Excerpt: Localization of beta-arrestin2 green fluorescent protein (βarr2-GFP) to the plasma membrane in cells overexpressing Smo seen in FIG. 1: Confocal images of βarr2-GFP expressed alone (A) or with Myc-Smo (B) in Human embryonic kidney (HEK)293 cells. (C) Effects of Ptc, ShhN, and G protein coupled receptor kinase (GRK2) on recruitment of βarr2-GFP to the plasma membrane. βarr2-GFP was expressed with Myc-Smo (bar 1), Myc-Smo and FLAG-Ptc (bar 2), Myc-Smo and FLAG-Ptc (co-cultured with HEK293 expressing Sonic hedgehog (Shh)N-terminus, an active form of Shh (bar 3), or Myc-Smo and GRK2 (bar 4) in HEK293 cells. Data are presented as the percentage of βarr2-GFP-13 expressing cells with recruitment of βarr2-GFP and are the means±SEM of three independent experiments. *P<0.05 (compared with bar 1) and **P<0.005 (compared with bar 2) (unpaired t test).
Confocal images of βarr2-GFP expressed with FLAG-Ptc (A), FLAG-Ptc and Myc-Smo (B), and Myc-Smo (C and D) in HEK293 cells. Cells were left untreated (A to C) or treated with 8 μM cyclopamine (D) at 37° C. for 5 min. […] (F and G) Confocal images of cells stimulated with 0.3 μM SAG at 37° C. for 0 min (F) and 30 min (G). HEK293 cells were transfected with βarr2-GFP, FLAG-Ptc, Myc-Smo, and GRK2.

T1 sequence (Q99835 28-787): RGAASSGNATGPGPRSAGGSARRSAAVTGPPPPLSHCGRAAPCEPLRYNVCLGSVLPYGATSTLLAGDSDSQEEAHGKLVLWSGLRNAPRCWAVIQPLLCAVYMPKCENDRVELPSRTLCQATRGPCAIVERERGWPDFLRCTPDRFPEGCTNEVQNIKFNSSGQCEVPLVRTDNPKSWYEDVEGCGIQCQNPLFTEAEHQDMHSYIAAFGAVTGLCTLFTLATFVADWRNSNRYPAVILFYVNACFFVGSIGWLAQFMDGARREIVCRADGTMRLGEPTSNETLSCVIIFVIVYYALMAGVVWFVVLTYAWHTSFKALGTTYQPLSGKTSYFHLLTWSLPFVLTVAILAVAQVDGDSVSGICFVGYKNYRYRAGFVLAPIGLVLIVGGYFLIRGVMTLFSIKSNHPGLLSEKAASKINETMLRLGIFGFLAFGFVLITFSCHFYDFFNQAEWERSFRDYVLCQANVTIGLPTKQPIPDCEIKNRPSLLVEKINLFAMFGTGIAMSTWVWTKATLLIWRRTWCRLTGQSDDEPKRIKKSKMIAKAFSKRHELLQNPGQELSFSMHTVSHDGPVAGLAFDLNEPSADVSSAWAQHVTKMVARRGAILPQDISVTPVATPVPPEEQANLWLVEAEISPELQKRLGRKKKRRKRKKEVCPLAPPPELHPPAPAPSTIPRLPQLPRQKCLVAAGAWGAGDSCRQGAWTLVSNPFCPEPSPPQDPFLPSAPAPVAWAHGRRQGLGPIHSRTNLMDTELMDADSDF

## CNC1CCC(N(Cc2cccc(-c3ccncc3)c2)C(=O)c2sc3ccccc3c2Cl)CC1 (centres unmarked) [SAG]
HEK293 cells transfected with βarr2-GFP, FLAG-Ptc, Myc-Smo and GRK2, 0.3 μM SAG at 37° C., 30 min versus 0 min
  Recruitment of βarr2-GFP to the plasma membrane under Ptc inhibition: relieves Ptc inhibition of recruitment of βarr2-GFP to the plasma membrane

## CC1=C2C[C@H]3[C@@H](CC=C4C[C@@H](O)CC[C@@]43C)[C@@H]2CC[C@]12O[C@@H]1C[C@H](C)CN[C@H]1[C@H]2C [cyclopamine]
HEK293 cells expressing βarr2-GFP and Myc-Smo, 8 μM cyclopamine at 37° C. for 5 min, versus untreated
  Recruitment of βarr2-GFP to Smo: ablated
